Test results taken from patent publication US11028058B2, “Heterocyclic compounds as adenosine antagonists” (NUVATION BIO INC., priority 2017, dated 2021).

Experiments:
[1] = biological target: recombinant human A2A receptor (Homo sapiens (Human), UniProt P29274); test: GTPγ35S scintillation proximity assay for A2A receptor; assay type: biochemical; conditions: read-out: A2A γGTP assay (% Inh Avg) @ 100 nM
Protocol: For antagonist testing, membranes extracts were prepared from HEK-293 cells expressing recombinant human A2A receptor, were mixed with GDP (volume:volume) and were incubated in assay buffer comprising 20 mM HEPES pH 7.4; 100 mM NaCl, 10 μg/mL saponin, 5 mM MgCl2 for at least 15 min on ice. In parallel, GTPγ[^35S] was mixed with the beads (volume:volume) just before starting the reaction. The following reagents were successively added in the wells of an Optiplate (Perkin Elmer): 25 μL of test compound or reference ligand, 25 μL of the membranes: GDP mix, 25 μL of reference agonist at historical EC80 and 25 μL of GTPγ[^35S] (PerkinElmer NEG030X), diluted in assay buffer to give 0.1 nM. The plate was incubated at room temperature for 1 hour. Then, 20 μL of IGEPAL was added for 30 minutes at room temperature. Following this incubation, 20 μL of beads (PVT-anti rabbit (PerkinElmer, RPNQ0016)), diluted in assay buffer at 50 mg/mL (0.5 mg/10 μL) and 20 μL of an Anti-GαS/olf antibody were added for a final incubation of 3 hours at room temperature. Then, the plates were centrifuged for 10 min at 2000 rpm, incubated at room temperature for 1 hour and counted for 1 min/well with a PerkinElmer TopCount reader.

[2] = biological target: HEK-293 cells expressing human recombinant adenosine A2A receptor (Homo sapiens (Human), UniProt P29274); test: cAMP assay, Assay 1 (HTRF kit); assay type: cell-based
Sequence of HEK-293 cells expressing human recombinant adenosine A2A receptor (P29274 whole entry): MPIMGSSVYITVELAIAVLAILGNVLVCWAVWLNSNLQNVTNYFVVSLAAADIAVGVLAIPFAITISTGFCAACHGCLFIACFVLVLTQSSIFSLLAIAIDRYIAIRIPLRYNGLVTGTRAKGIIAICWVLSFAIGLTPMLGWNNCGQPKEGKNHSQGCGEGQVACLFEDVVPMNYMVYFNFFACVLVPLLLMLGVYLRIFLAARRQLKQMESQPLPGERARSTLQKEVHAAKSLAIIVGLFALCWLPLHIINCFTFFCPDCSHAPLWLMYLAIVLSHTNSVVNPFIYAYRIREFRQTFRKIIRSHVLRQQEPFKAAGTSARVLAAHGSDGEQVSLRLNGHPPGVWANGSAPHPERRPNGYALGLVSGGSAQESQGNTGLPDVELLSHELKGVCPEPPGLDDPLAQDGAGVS
Protocol: The functional activity of compounds was tested using one of the two assays to detect the present of cAMP. Activation of G-protein coupled receptors (such as A2A) results in activation of adenylcyclase which converts ATP into cAMP which is used as a downstream signaling molecule. Therefore, molecules which act as GPCR (or specifically A2A receptor) antagonists cause a decrease in intracellular cAMP concentration.
Both assays used HEK-293 cells expressing human recombinant adenosine A2A receptor were grown prior to the test in media without antibiotic.
12 μL of cells were mixed with 6 μL of the test compound at increasing concentrations and then incubated for 10 min. Thereafter 6 μL of the reference agonist was added at a final concentration corresponding to the historical EC80. The plates were then incubated for 30 min at room temperature. After addition of the lysis buffer and 1 hour incubation, cAMP concentrations were estimated, according to the manufacturer specification, with the HTRF® kit.

[3] = biological target: adenosine A2A receptor (Homo sapiens (Human), UniProt P29274); test: A2A adenosine receptor radioligand binding competition assay (filter plates)
Sequence of adenosine A2A receptor (P29274 whole entry): as above
Protocol: (§1) Binding of selected compounds to the adenosine A2A, A1, A2B, and A3 receptors was tested using a binding competition assay.
(§2) The general protocol for the radioligand binding competition assay was as follows. Competition binding was performed in duplicate in the wells of a 96 well plate (Master Block, Greiner, 786201) containing binding buffer (optimized for each receptor), membrane extracts (amount of protein/well optimized for each receptor), radiotracer (final concentration optimized for each receptor), and test compound. Nonspecific binding was determined by co-incubation with 200-fold excess of cold competitor. The samples were incubated in a final volume of 0.1 mL at 25° C. for 60 minutes and then filtered over filter plates. Filters were washed six times with 0.5 mL of ice-cold washing buffer (optimized for each receptor) and 50 μL of Microscint 20 (Packard) were added on each filter. The filter plates were sealed, incubated 15 min on an orbital shaker and scintillation counted with a TopCount for 30 sec/filter.
For the A2A adenosine receptor radioligand binding assay, the following modifications were made to the general protocol. GF/C filters (Perkin Elmer, 6005174), presoaked in 0.01% Brij for 2 h at room temperature were used. Filters were washed six times with 0.5 mL of ice-cold washing buffer (50 mM Tris pH 7.4) and 50 μL of Microscint 20 (Packard) was added in each well. The plates were then incubated for 15 min on an orbital shaker and then counted with a TopCount™ for 1 min/well. Another radioligand binding assay was used to evaluate the binding affinity for the adenosine A2A receptor assay was performed in duplicate in the wells of a 384 plate. Assay buffer contained DPBS 500 mM, MgCl2 0.1 mM, and 1% DMSO. Membrane-bead suspension was prepared by mixing 25.98 μL of human adenosine A2A membrane preparation (Perkin Elmer, RBHA2AM400UA) at 33.4 μg/mL, 28 μL of ADA at 20 μg/mL, and 932 μL of SPA beads at 3.33 mg/mL) and incubated the mixture for 20 min at room temperature. Mixed 20 μL of radiotracer (^3H-SCH 58261) at 15 nM to each well containing test articles at various concentrations and centrifuge the plate at 1000 rpm for 1 minute. Added 30 μL of the membraine-bead suspension to each well. Sealed the plates and incubated for 1 hr at room temperature with vigorous mixing on a plate mixer. Plates were read on Microbeta^2 (Perkin Elmer, 2450-0010).

[4] = biological target: adenosine A2B receptor (HEK-293-A2B cell membranes) (Homo sapiens (Human), UniProt P29275); test: Adenosine A2B radioligand binding competition assay (3H-DPCPX)
Sequence of adenosine A2B receptor (HEK-293-A2B cell membranes) (P29275 whole entry): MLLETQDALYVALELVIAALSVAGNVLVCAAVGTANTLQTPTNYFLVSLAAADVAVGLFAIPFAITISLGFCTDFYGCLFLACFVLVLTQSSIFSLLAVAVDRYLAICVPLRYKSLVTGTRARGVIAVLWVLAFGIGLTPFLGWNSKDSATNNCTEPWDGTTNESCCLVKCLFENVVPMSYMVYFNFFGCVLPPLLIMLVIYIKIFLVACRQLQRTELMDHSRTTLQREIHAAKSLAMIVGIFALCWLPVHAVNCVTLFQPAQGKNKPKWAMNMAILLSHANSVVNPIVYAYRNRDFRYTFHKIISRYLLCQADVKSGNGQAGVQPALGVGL
Protocol: as §1
as §2, with “sec/filter. […]” for “sec/filter.”

[5] = biological target: adenosine A1 receptor (CHO-K1-A1 cell membranes) (Homo sapiens (Human), UniProt P30542); test: Adenosine A1 radioligand binding competition assay (3H-DPCPX)
Sequence of adenosine A1 receptor (CHO-K1-A1 cell membranes) (P30542 whole entry): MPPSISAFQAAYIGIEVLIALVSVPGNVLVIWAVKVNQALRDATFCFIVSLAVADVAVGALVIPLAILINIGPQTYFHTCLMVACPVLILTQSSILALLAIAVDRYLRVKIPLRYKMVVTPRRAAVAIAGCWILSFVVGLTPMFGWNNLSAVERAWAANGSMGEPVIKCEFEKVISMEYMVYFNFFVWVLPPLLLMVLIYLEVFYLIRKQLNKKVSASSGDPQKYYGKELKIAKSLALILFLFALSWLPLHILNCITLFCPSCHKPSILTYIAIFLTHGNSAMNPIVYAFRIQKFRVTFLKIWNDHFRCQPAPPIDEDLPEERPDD
Protocol: as §1
as §2, with “sec/filter. […]” for “sec/filter.”

[6] = biological target: adenosine A3 receptor (CHO-K1-A3 cell membranes) (Homo sapiens (Human), UniProt P0DMS8); test: Adenosine A3 radioligand binding competition assay (125I-AB-MECA)
Sequence of adenosine A3 receptor (CHO-K1-A3 cell membranes) (P0DMS8 whole entry): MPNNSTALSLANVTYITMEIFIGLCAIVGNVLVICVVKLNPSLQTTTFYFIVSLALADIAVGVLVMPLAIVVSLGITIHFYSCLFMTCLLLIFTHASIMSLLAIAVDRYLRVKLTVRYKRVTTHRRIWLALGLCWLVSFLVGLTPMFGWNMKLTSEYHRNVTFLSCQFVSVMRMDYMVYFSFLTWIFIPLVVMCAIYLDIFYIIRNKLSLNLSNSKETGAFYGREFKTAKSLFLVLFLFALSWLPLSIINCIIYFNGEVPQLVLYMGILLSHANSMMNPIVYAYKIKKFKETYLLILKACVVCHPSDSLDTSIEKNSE
Protocol: as §1, §2
For the adenosine A3 radioligand binding competition assay, the following reagents were used:
CHO-K1-A3 cell membranes, 1.5 μg/well; a binding buffer comprising HEPES 25 mM pH 7.4, MgCl2 5 mM, CaCl2 1 mM, 0.5% BSA; a wash buffer comprising HEPES 25 mM pH 7.4, MgCl2 5 mM, CaCl2 1 mM; a Unifilter GF/C—treated for 2 h with 0.5% BS; and 0.4 nM of ^125I-AB-MECA as the tracer.

Sequence of recombinant human A2A receptor (P29274 whole entry): as the sequence (P29274 whole entry) above

inhibition at 0.1 µM [1]: 82%
IC50 [2]: 6 nM
inhibition at 0.1 µM ([2]; HEK293, 100 nM, read-out: A2a cAMP (% inh @ 100 nM)): 97%
A2A radioligand binding competition assay % residual binding @ 100 nM ([3]; 100 nM): 30%
A2A radioligand binding competition assay % residual binding @ 1000 nM ([3]; 1000 nM): 12%
IC50 ([3]; Table B1-1): 57 nM
Radioligand binding competition assay % residual binding @ 300 nM (A2B) [4]: −9%
Radioligand binding competition assay % residual binding @ 300 nM (A1) [5]: −3%
Radioligand binding competition assay % residual binding @ 300 nM (A3) [6]: 96%
SMILES: Nc1cnc(-c2ccc(O)c(Cl)c2)c(-c2ccccc2)n1 [Compound 1.1, 4-(5-amino-3-phenylpyrazin-2-yl)-2-chlorophenol]
